The structures appear in SMILES notation.

We go through 14 compounds from ChEMBL document CHEMBL1129801, “3-Benzyloxy-2-phenylpiperidine NK1 antagonists: the influence of alpha methyl substitution” (Bioorg Med Chem Lett, 1997).

Assay [1] addresses Substance-P receptor (Rattus norvegicus, UniProt P14600). The experiment in a line: […]. Format: functional, microsomes, Liver, Microsome.
A short description of assay [2]: Compound was tested in vivo for the ability to antagonise extravasation induced by the administration. Conditions: read-out: ID50 (the source's name). Format: functional.
The nature of assay [3]: Compound was tested in vivo for the ability to antagonise extravasation induced by the administration. Format: functional.
The nature of assay [4]: (§1) Compound was tested in vivo for the ability to antagonise extravasation induced by the administration at 1 mg/kg po. Format: functional.
Assay [5] in a line: as §1. Format: functional. This is another data set of the same source.

Substance-P receptor, sequence (P14600 whole entry): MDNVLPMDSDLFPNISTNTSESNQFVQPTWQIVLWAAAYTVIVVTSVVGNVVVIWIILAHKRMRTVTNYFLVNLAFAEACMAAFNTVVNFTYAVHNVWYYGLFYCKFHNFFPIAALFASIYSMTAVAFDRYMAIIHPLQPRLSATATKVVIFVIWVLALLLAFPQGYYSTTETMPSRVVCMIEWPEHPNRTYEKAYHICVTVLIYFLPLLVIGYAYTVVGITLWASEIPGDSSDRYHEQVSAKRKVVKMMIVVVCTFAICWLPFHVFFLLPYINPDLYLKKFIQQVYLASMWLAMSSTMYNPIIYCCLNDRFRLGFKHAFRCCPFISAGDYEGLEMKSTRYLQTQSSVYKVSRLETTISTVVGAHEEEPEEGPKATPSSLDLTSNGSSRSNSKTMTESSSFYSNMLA

One may read the IC50 as the concentration that gives 50% inhibition. Read a low IC50 as greater potency in that assay. The compound `C[C@@H](O[C@H]1CCCN[C@H]1c1ccccc1)c1ccccc1` yielded an IC50 in assay [1] of 86 nM.

In assay [1], `c1ccc(CO[C@H]2CCCN[C@H]2c2ccccc2)cc1` yielded an IC50 of 160 nM.

For `C[C@H](O[C@H]1CCCN[C@H]1c1ccccc1)c1cc(Cl)cc(Cl)c1`, the IC50 in assay [1] was determined as 85 nM.

`C[C@H](O[C@H]1CCCN(Cc2n[nH]c(O)n2)[C@H]1c1ccccc1)c1cc(Cl)cc(Cl)c1` gave an IC50 in assay [1] of 25 nM.

Consider `C[C@@H](O[C@H]1CCCN(Cc2n[nH]c(O)n2)[C@H]1c1ccccc1)c1cc(Cl)cc(Cl)c1`, for which the ED50 in assay [2] is > 0.1 mg/kg. For the same compound, it took 0.09 nM to reach half-maximal inhibition in assay [1] (IC50).

By Inhibition is commonly meant the percentage by which the read-out fell short of the control. A low value points to a weak effect. In general, inhibition in vivo refers to the share of the control response that was lost under treatment. Compound `C[C@@H](O[C@H]1CCCN(Cc2nc[nH]n2)[C@H]1c1ccccc1)c1cc(C(F)(F)F)cc(C(F)(F)F)c1` came in with an Inhibition in assay [3] of 12%. Besides, the ED50 in assay [2] worked out at 0.06 mg/kg. Moreover, in assay [1], half-maximal inhibition (IC50) required 0.16 nM. Further, at 1 mg/kg the inhibition in vivo in assay [4] was 78%.

Consider `C[C@@H](O[C@H]1CCCN[C@H]1c1ccccc1)c1cc(Cl)cc(Cl)c1`, for which, in assay [1], the midpoint of inhibition, the IC50, lay at 0.91 nM.

In assay [1], `C[C@@H](O[C@H]1CCCN[C@H]1c1ccccc1)c1cc(C(F)(F)F)cc(C(F)(F)F)c1` had an IC50 of 0.15 nM.

In turn, `C[C@@H](O[C@H]1CCCN(Cc2n[nH]c(=O)[nH]2)[C@H]1c1ccccc1)c1ccccc1` displayed an IC50 in assay [1] of 5.9 nM.

`C[C@H](O[C@H]1CCCN[C@H]1c1ccccc1)c1cc(C(F)(F)F)cc(C(F)(F)F)c1` displayed an IC50 in assay [1] of 87 nM.

In assay [3], `FC(F)(F)c1cc(CO[C@H]2CCCN(Cc3nc[nH]n3)[C@H]2c2ccccc2)cc(C(F)(F)F)c1` registered an Inhibition of 0%. In assay [2], the ED50 worked out at 0.034 mg/kg. The IC50 in assay [1] worked out at 0.18 nM. In addition, in assay [4], at 1 mg/kg the inhibition in vivo was 55%.

On to `C[C@H](O[C@H]1CCCN[C@H]1c1ccccc1)c1ccccc1`, for which, in assay [1], the IC50 was > 10000 nM.

For `C[C@@H](O[C@H]1CCCN(Cc2n[nH]c(O)n2)[C@H]1c1ccccc1)c1cc(C(F)(F)F)cc(C(F)(F)F)c1`, the inhibition in vivo at 1 mg/kg came out at 66% in assay [5] and 97% in assay [4]. Moreover, the ED50 in assay [2] was found to be 0.026 mg/kg. Further, in assay [1], it took 0.16 nM to reach half-maximal inhibition (IC50).

As to `FC(F)(F)c1cc(CO[C@H]2CCCN[C@H]2c2ccccc2)cc(C(F)(F)F)c1`, the IC50 in assay [1] is 0.8 nM.
